“Also recorded” adds a separate entry of the source. Where two headings read alike, the source gives them in different places.
Experiments:
[1] = in vivo; cited from earlier work
[2] = after 25 g fresh garlic or 60 mg pure allicin; cited from earlier work
[3] = n-octanol/water (stated for DADS); cited from earlier work
[4] = cited from earlier work
[5] = Reaction with hydrogen peroxide, HPLC
Description: Hydrogen peroxide (H2O2) was chosen for use as the model oxidant because it is readily available, sufficiently reactive to produce the desired effects, and sufficiently stable to be readily observed. The availability of an inexpensive real-time probe for H2O2 measurement (the ABD-3001, which could be leased by the month from Universal Sensors Inc.) was also a consideration.
The specific ability of allyl mercaptan in this regard was deemed worthy of being experimentally investigated because further experiments were planned that would rely on this ability. […] Therefore, HPLC alone was used to measure the reactants and products.
In FIG. 7, the concentrations are reported as “uM allyl” to take into account the fact that each DADS molecule contains two allyl groups, while each AllylSH molecule has only one.
Another experiment was performed at approximate body temperature (37 degrees C.) and calculated membrane AllylSH concentration.

[6] = target: CYP2E1 enzyme (Rattus norvegicus, UniProt P05182); details: cited from earlier work
[7] = pH dependence of reaction rate with cysteine
[8] = test system: CYP2D6; details: in 30 minutes; cited from earlier work
[9] = test system: LDL; details: cited from earlier work
[10] = cited from earlier work; remark: listed apart in the source
[11] = test system: total glutathione level of cells; details: cited from earlier work
[12] = chemiluminescence assay; cited from earlier work
[13] = in vivo; cited from earlier work; remark: listed apart in the source
[14] = cited from earlier work; for pKa: thiol group
[15] = test system: nematodes; details: cited from earlier work
[16] = test system: E-coli O157:H7; details: cited from earlier work
[17] = target: T1, papain (Carica papaya, UniProt P00784); details: cited from earlier work
T1 sequence (P00784 134-345): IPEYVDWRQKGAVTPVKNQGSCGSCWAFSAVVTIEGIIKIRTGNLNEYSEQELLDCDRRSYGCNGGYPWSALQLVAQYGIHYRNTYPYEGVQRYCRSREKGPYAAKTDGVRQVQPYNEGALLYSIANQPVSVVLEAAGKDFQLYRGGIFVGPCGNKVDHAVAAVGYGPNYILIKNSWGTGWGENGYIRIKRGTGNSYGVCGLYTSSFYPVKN

[18] = test system: glutathione content of cells; details: daily dosage of 1000 mg; cited from earlier work

Sequence of CYP2E1 enzyme (P05182 whole entry): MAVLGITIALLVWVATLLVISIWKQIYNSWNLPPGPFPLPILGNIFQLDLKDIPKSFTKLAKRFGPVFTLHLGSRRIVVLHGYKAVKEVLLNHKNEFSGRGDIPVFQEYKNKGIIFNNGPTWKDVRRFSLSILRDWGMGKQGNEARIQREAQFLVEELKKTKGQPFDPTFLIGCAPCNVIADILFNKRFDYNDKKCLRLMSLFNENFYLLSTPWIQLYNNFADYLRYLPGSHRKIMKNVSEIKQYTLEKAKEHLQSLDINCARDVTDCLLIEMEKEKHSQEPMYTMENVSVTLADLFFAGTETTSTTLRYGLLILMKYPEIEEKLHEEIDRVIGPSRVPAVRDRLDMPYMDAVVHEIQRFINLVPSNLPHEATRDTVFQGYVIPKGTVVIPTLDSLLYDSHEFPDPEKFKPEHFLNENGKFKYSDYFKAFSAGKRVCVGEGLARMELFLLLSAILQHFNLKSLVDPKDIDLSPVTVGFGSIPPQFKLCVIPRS

## C=CCSSC=CC[S+]([O-])CC=C (mixture of isomers) [ajoene]
[1]
  production of breath AMS and acetone: produce both breath AMS and acetone

## C=CCS[S+]([O-])CC=C (stereo not shown) [Allicin, DiAllylThioSulfinate]
[2]
  detectability in blood, urine, or stool: undetectable
[3]
  partition coefficient: 12.3
[4]
  Reaction in Blood Half-life: <1 min
  Reaction in Blood Product (moles): (1.6) moles
[4]; red blood cells exposed to allicin
  time to metabolize to allyl mercaptan: less than one minute

## C=CCS [AllylSH, AllylThiol]
[5]; 0.85 mM AllylSH, 10 mM H2O2, 15 minute
  formation of diallyl disulfide: essentially linear with time

## C=CCSSCC=C [DADS, Diallyl Disulfide]
[3]
  partition coefficient: 25.0
[6]
  inhibition of CYP2E1: potent inhibitor
[5]; 0.2 mM DADS, 0.022 mM AllylSH, 5.0 mM H2O2, 37 degrees C., 11 minutes
  allicin yield: 0.015 mM
[5]; 0.2 mM DADS, 5.0 mM H2O2, room temperature, no AllylSH
  rate of allicin formation: essentially linear with time
[7]
  dependence of reaction rate with cysteine on pH: dramatically increasing between pH 8 and 9
[1]
  production of breath AMS and acetone: produce both breath AMS and acetone
[8]
  conversion of DADS to allicin: approximately 30%
[4]
  Reaction in Blood Half-life: 60 min
  Reaction in Blood Product (moles): (0.8) moles

## C=CCSCC=C [DAS, diallyl sulfide]
[1]
  production of breath AMS and acetone: only produces breath acetone

## C=CCSSSCC=C [DATS, Diallyl Trisulfide]
[1]
  production of breath AMS and acetone: produce both breath AMS and acetone
[4]
  Reaction in Blood Half-life: 4 min
  Reaction in Blood Product (moles): (0.8) moles

## C=CCSC[C@H](NC(C)=O)C(=O)O [N-acetyl-S-allylcysteine]
[9]
  effect on Cu2+ induced LDL oxidation: significantly reduce

## C=CCSC[C@H](N)C(=O)O [SAC, S-allylcysteine]
[9]
  effect on Cu2+ induced LDL oxidation: significantly reduce
[1]
  production of breath AMS and acetone: produces no breath AMS or acetone

## C=CCSSC[C@H](N)C(=O)O [SAMC, S-AllylMercaptoCysteine]
[10]; post treatment, single dose 200 mg/kg
  protection from acetaminophen poisoning: protective
[10]; pretreatment
  protection from acetaminophen poisoning: protect mice from acetaminophen poisoning
[11]
  total glutathione level of cells: significantly increase the total glutathione level of cells; also recorded: significant increases the total glutathione level of cells
[12]
  antioxidant or pro-oxidant activity: most effective antioxidants
[9]
  effect on Cu2+ induced LDL oxidation: significantly reduce
[1]
  bioavailable (ingested): 100%
  production of breath AMS and acetone: produce both breath AMS and acetone
[4]
  Reaction in Blood Half-life: 3 min
  Reaction in Blood Product (moles): (0.8) moles

## Cc1c(C)c2c(c(C)c1O)CC[C@@](C)(CCC[C@H](C)CCC[C@H](C)CCCC(C)C)O2 [alpha-tocopherol]
[3]
  partition coefficient: 550

## NCCS [cysteamine]
[13]
  radioprotective effect: effective

## N[C@@H](CS)C(=O)O [cysteine, Cysteine]
[13]
  radioprotective effect: effective
[14]
  pKa: approximately 8.5
[14]; listed as CySH
  pKa: 8.44

## CCCS[S+]([O-])CCC (stereo not shown) [dipropylthiosulfinate]
[15]
  nematicidal activity: most effective compound found

## N[C@@H](CCC(=O)N[C@@H](CS)C(=O)NCC(=O)O)C(=O)O [glutathione, Glutathione]
[12]
  antioxidant or pro-oxidant activity: most effective antioxidants
[13]
  radioprotective effect: effective
[14]
  pKa of transformation to thiazoline form: 5.3
  pKa: approximately 8.5

## N[C@@H](CCS)C(=O)O [homocysteine]
[13]
  radioprotective effect: effective

## C=CCS[S+](C)[O-] (stereo not shown) [methyl allyl thiosulfinate]
[16]
  activity against E-coli O157:H7: effective against E-coli O157:H7

## CS[S+](C)[O-] (stereo not shown) [methyl methane thiosulfinate]
[16]
  activity against E-coli O157:H7: effective against E-coli O157:H7

## O=[N+]([O-])c1ccc([Se]S(=O)(=O)O)cc1 [selenosulfide, pNO2Ph-Se—SO3^−]
[17]
  limit of inhibition of SH-dependent enzyme: ~50%

## O=C1O[C@H]([C@@H](O)CO)C(O)=C1O [vitamin C]
[18]
  mean percentage decrease of glutathione: 60%

## S-allylcysteine sulfoxide [alliin]
[9]
  effect on Cu2+ induced LDL oxidation: significantly reduce

## SnO2Ph-Se—S—SO3^− [S-aryl selenenylthiosulphate]
[17]; by the first data point
  inactivation of the enzyme: > 90%

From US8217084B2, “Medicinal products incorporating bound organosulfur groups” (Allium Vitalis Incorporated, priority 2004, dated 2012)
